The source of these data is patent US6472413B2, “Heteroarylacryloylaminoalkyl-substituted benzenesulfonamide derivatives, their preparation, their use and pharmaceutical preparations comprising them” (Adventis Pharma Deutschland GmbH, priority 2000, dated 2002).

The test system of data set [1] is papillary muscle of the guinea pig. Briefly: Action potential duration on the papillary muscle of the guinea pig (relengthening of hypoxia-shortened APD90). Particulars: concentration 2 μM, 60 min after addition, percentage in relation to the shortening caused by hypoxia. It is filed as cell-based. From the text: Action Potential Duration on the Papillary Muscle of the Guinea Pig
ATP deficiency states, observed during ischemia in the cardiac muscle cell, lead to a shortening of the action potential duration (ATP=adenosine triphosphate). They are regarded as one of the causes of so-called reentry arrhythmias, which can cause sudden cardiac death. The opening of ATP-sensitive potassium channels by the lowering of the ATP level is regarded as the cause of this. For the measurement of the action potential on the papillary muscle of the guinea pig a standard microelectrode technique was employed.
Guinea pigs of both sexes were killed by a blow to the head, the hearts were removed, and the papillary muscles were separated out and suspended in an organ bath. The organ bath was rinsed with Ringer's solution (136 mmol/l of NaCl, 3.3 mmol/l of KCl, 2.5 mmol/l of CaCl2, 1.2 mmol/l of KH2PO4, 1.1 mmol/l of MgSO4, 5.0 mmol/l of glucose, 10.0 mmol/l of 1-(2-hydroxyethyl)piperazine-4-(2-ethanesulfonic acid) (HEPES), pH adjusted to 7.4 with NaOH) and aerated with 100% oxygen at a temperature of 37° C. The muscle was stimulated with square-wave pulses of 1 V and 1 ms duration and a frequency of 1 Hz by means of an electrode. The action potential was derived and recorded by means of a glass microelectrode inserted intracellularly, which was filled with 3 mol/l of KCl solution. The compound to be tested was added to the Ringer's solution in a concentration of 2 μmol/l. The action potential was amplified using an amplifier from Hugo Sachs (March-Hugstetten, Germany) and stored and analyzed by means of a computer. The duration of the action potential was determined at a degree of repolarization of 90% (APD90). After an equilibration time of 30 min, the action potential shortening was produced by rinsing the papillary muscle with a hypoxic NaCl solution. The glucose was removed here, the HEPES buffer replaced by PIPES buffer (piperazine-1,4-bis(2-ethanesulfonic acid)), the pH was adjusted to 6.5, and the aeration was carried out using 100% nitrogen. After a time of 60 min, this led to a marked shortening of the APD90. After this time, the test compound was added and the relengthening of the action potential recorded after a further 60 min. The compound-caused relengthening of the APD90 was calculated as a percentage, in relation to the shortening caused by hypoxia. The test compounds were added to the bath solution as stock solution in propanediol.
The following relengthenings of the APD90 values were observed.

The target of data set [2] is hSUR1/hKir6.2 (Homo sapiens, UniProt Q09428+Q14654). The data set can be described thus: Action on hSUR1/hKir6.2-transfected CHO cells (hypoglycemic action), membrane potential by DIBAC4 fluorescence (FLIPR). It is filed as cell-based. Particulars: concentration 10 μM; CHO cells activated with diaxozide; mean of at least 4 experiments. From the text:
Action on hSUR1/hKir6.2-transfected CHO Cells (Hypoglycemic Action)
The target organ of these compounds is the β cell of the pancreas where they block ATP-sensitive potassium channels and produce a release of the hypoglycemic hormone insulin by influencing the electrical potential of the cell membrane.
The extent of this depolarization of the cell membrane, which is caused by the compounds according to the invention, was investigated on CHO cells that were transfected with the cloned components of human pancreatic ATP-sensitive potassium channels, hSUR1, and hKir6.2, and activated by pretreatment with diaxozide, an opener of ATP-sensitive potassium channels. The potency of a compound with respect to the membrane potential of these transfected and activated CHO cells is a measure of the hypoglycemic potential of this compound.
On the day of measurement, the microtiter plates were washed three times with PBS (physiological buffer solution). In the last washing step, 90 μl remained in each well. The cells were then loaded with the fluorescent dye DIBAC4 (Molecular Probes, Portland, Oreg., USA) by addition of 90 μl of a 10-micromolar solution of DIBAC4 in PBS and of 90 μl of a 400 micromolar solution of diaxozide in PBS to each well. After an incubation time of 30 min at 37° C., the microtiter plates were then transferred to a fluorescent microtiter plate reader (FLIPR; Molecular Devices, Sunnyvale, Calif., USA). The cells were stimulated by means of an argon laser (Innova 90; Coherent, Santa Clara, Calif., USA) at a wavelength of 488 nm and the fluorescence emission was measured by means of a CCD camera. The measurement of the membrane potential began after 4 min by addition of 20 μl of a solution of the test compound or of the control solution to each well, the resulting fluorescence emission being measured every 20 seconds for a period of 20 min. The data shown are mean values of at least 4 experiments.

The test system of data set [3] is chloroform-induced ventricular fibrillation in the mouse. Briefly: Chloroform-induced ventricular fibrillation in the mouse (action in the case of vagal dysfunction). Type of data set: in vivo. Particulars: 3 mg/kg i.p., 30 min before chloroform anesthesia, percentage of mice with ventricular fibrillation, untreated control 100%. The text has this:
Chloroform-induced Ventricular Fibrillation in the Mouse (Action in the Case of Vagal Dysfunction)
Hypoactivity of the vagal nervous system leads to hyperactivity of the sympathetic nervous system. Damages to health that result from an inequilibrium of the autonomic nervous system when the dysfunction affects the heart include the weakening of the myocardial contractile force and fatal cardiac arrhythmias such as ventricular fibrillation. The action of the test compounds was investigated in the model of chloroform-induced ventricular fibrillation in the mouse (see J. W. Lawson, Antiarrhythmic activity of some isoquinoline derivatives determined by a rapid screening procedure in the mouse; J. Pharmacol. Exp. Ther. 160 (1968) 22).
The test compound was dissolved in a mixture of dimethyl sulfoxide (DMSO) and 10 percent sodium hydrogencarbonate solution and administered intraperitoneally (i.p.). The dose was 3 mg/kg. 30 min later, the mouse was anesthetized with chloroform in a beaker. As soon as respiratory arrest had occurred under deep anesthesia (toxic stage of anesthesia), the thorax of the animal was opened using a pair of scissors and the heartbeat was visually inspected. It can be determined here at a glance whether the heart is beating, fibrillating, or has stopped. The respiratory arrest induced by chloroform leads, via an absolute anoxia (oxygen deficiency) in combination with a direct stimulating action of chloroform on the sympathetic nervous system, to a strong stimulation of the sympathetic nervous system, which in turn, and in combination with the energy deficiency caused by oxygen deficiency, leads in the heart to the fatal arrhythmia, ventricular fibrillation. This toxic chloroform anesthesia led to ventricular fibrillation in 100% of the untreated mice (control). The percentage proportion of the mice with ventricular fibrillation in the individual test groups (consisting of n animals) is indicated as the fibrillation ratio.
The following fibrillation ratios were observed.

hSUR1/hKir6.2, sequence (Q09428 whole entry): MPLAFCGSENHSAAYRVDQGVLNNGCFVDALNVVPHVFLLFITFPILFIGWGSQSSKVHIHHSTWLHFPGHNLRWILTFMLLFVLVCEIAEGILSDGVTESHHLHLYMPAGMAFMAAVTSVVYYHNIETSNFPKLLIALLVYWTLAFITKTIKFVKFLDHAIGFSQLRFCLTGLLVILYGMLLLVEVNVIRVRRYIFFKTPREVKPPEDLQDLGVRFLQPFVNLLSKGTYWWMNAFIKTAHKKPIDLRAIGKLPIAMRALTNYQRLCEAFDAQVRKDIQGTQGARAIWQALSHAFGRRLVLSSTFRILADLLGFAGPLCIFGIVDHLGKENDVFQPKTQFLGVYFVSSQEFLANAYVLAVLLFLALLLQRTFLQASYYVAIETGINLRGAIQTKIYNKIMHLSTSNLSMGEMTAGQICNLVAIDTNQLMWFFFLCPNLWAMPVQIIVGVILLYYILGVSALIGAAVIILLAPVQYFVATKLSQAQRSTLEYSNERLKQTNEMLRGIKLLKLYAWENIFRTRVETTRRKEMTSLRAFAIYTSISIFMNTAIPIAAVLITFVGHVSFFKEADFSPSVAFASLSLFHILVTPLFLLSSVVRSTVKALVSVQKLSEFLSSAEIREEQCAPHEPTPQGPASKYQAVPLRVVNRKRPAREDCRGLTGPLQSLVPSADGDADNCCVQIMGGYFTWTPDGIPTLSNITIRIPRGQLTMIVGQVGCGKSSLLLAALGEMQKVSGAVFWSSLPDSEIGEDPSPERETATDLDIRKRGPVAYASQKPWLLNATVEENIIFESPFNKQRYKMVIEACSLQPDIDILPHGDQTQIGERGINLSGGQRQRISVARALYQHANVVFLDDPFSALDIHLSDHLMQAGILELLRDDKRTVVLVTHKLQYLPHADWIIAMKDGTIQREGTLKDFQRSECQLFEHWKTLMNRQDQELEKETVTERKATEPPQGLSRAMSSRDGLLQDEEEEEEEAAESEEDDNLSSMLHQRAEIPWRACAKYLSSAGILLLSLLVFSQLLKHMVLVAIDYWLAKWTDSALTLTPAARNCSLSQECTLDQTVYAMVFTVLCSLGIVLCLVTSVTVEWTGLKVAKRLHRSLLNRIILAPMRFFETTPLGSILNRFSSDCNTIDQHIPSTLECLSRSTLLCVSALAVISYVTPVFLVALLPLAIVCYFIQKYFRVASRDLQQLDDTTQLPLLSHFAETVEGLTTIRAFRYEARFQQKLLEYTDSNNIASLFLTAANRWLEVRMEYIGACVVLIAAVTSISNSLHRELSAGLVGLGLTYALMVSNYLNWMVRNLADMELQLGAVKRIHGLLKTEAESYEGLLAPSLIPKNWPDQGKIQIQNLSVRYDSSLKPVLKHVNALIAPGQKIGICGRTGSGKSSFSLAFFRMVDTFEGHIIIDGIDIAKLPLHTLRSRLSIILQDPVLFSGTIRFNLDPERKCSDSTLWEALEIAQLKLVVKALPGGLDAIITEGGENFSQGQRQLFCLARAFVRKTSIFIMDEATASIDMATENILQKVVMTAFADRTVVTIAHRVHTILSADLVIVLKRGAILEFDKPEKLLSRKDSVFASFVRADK
hSUR1/hKir6.2, sequence (Q14654 whole entry): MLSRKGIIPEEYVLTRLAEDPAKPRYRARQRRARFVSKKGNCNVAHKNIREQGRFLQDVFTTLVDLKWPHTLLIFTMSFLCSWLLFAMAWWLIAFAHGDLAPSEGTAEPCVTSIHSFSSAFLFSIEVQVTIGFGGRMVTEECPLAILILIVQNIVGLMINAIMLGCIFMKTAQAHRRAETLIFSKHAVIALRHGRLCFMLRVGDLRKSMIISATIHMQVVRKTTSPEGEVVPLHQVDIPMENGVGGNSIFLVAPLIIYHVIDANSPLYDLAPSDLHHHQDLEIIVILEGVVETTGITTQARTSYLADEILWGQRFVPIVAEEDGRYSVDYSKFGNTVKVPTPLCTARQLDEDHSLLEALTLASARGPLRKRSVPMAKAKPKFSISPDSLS

For the compound `CCOCCOc1ccc(CCNC(=O)/C=C/c2cccs2)cc1S(=O)(=O)NC(=S)NC` [Example 10, 1-[5-(2-(trans-3-(2-Thienyl)acryloylamino)ethyl)-2-(2-ethoxyethoxy)phenylsulfonyl]-3-methyl-thiourea], in data set [1], the “Relengthening of the APD90 shortened by hypoxia” value (shortened to “Relengthening”) was 50%.

The compound `COc1ccc(CCNC(=O)/C=C/c2cccs2)cc1S(=O)(=O)NC(=S)NC(C)C` [Example 5, 1-[5-(2-(trans-3-(2-Thienyl)acryloylamino)ethyl)-2-methoxyphenyisulfonyl]-3-isopropyl-thiourea] showed a melting point of 96 °C.

`CNC(=S)NS(=O)(=O)c1cc(CCNC(=O)/C=C/c2cccs2)ccc1OCCOC` [Example 6, 1-[5-(2-(trans-3-(2-Thienyl)acryloylamino)ethyl)-2-(2-methoxyethoxy)phenylsulfonyl]-3-methyl-thiourea] registered a melting point of 152 °C.

On to `COCCOc1ccc(CCNC(=O)/C=C/c2ccccn2)cc1S(=O)(=O)NC(=S)NC(C)C` [Example 20, 1-[5-(2-(trans-3-(2-Pyridyl)acryloylamino)ethyl)-2-(2-methoxyethoxy)phenylsulfonyl]-3-isopropyl-thiourea], for which the “Blockade hSUR1/hKiR6.2” value in data set [2] is listed as 5.9%. Further, in data set [1], the “Relengthening” value is reported as 26%. Also, the “Fibrillation ratio (in %)” value in data set [3] was determined as 80%.

Consider `CNC(=S)NS(=O)(=O)c1cc(CCNC(=O)/C=C/c2cccs2)ccc1-c1ccco1` [Example 17, 1-[5-(2-(trans-3-(2-Thienyl)acryloylamino)ethyl)-2-(2-furyl)phenylsulfonyl]-3-methyl-thiourea], for which the melting point lay in the range of 175 to 176 °C.

For the compound `CCOCCOc1ccc(CCNC(=O)/C=C/c2cccs2)cc1S(=O)(=O)NC(=O)NC` [Example 11, 1-[5-(2-(trans-3-(2-Thienyl)acryloylamino)ethyl)-2-(2-ethoxyethoxy)phenylsulfonyl]-3-methyl-urea], the melting point turned out to be 65 °C.

With `CNC(=O)NS(=O)(=O)c1cc(CCNC(=O)/C=C/c2cccs2)ccc1OC` [Example 3, 1-[5-(2-(trans-3-(2-Thienyl)acryloylamino)ethyl)-2-methoxyphenylsulfonyl]-3-methyl-urea], the “Blockade hSUR1/hKiR6.2” value in data set [2] is listed as 1.7%. The “Fibrillation ratio (in %)” value in data set [3] was 65%.

For `CCOc1ccc(CCNC(=O)/C=C/c2cccs2)cc1S(=O)(=O)NC(=S)NC` [Example 9, 1-[5-(2-(trans-3-(2-Thienyl)acryloylamino)ethyl)-2-ethoxyphenylsulfonyl]-3-methyl-thiourea], the melting point was 74 °C.

On to `CNC(=S)NS(=O)(=O)c1cc(CCNC(=O)/C=C/c2cccs2)ccc1OC` [Example 1, 1-[5-(2-(trans-3-(2-Thienyl)acryloylamino)ethyl)-2-methoxyphenylsulfonyl]-3-methyl-thiourea], for which the “Blockade hSUR1/hKiR6.2” value in data set [2] is 30.7%. Moreover, the “Relengthening” value in data set [1] is given as 33%.

As to `CNC(=S)NS(=O)(=O)c1cc(CCNC(=O)/C=C/c2cccs2)ccc1OCC1CCCO1` (stereo not drawn) [Example 14, 1-[5-(2-(trans-3-(2-Thienyl)acryloylamino)ethyl)-2-(tetrahydrofuran-2-ylmethoxy)phenylsulfonyl]-3-methyl-thiourea], the melting point is 78 °C.

Take `CNC(=S)NS(=O)(=O)c1cc(CCNC(=O)/C=C/c2cccs2)ccc1OCC1CCCCO1` (stereo not drawn) [Example 15, 1-[5-(2-(trans-3-(2-Thienyl)acryloylamino)ethyl)-2-(tetrahydropyran-2-ylmethoxy)phenylsulfonyl]-3-methyl-thiourea]: the melting point came out at 80 °C.

The compound `CNC(=S)NS(=O)(=O)c1cc(CCNC(=O)/C=C/c2cccs2)ccc1OCCOC(F)(F)F` [Example 16, 1-[5-(2-(trans-3-(2-Thienyl)acryloylamino)ethyl)-2-(2-(trifluoromethoxy)ethoxy)phenylsulfonyl]-3-methyl-thiourea] gave a melting point of 161 to 163 °C.

As for `COCCOc1ccc(CCNC(=O)/C=C/c2cccs2)cc1S(=O)(=O)NC(=S)NC(C)C` [Example 8, 1-[5-(2-(trans-3-(2-Thienyl)acryloylamino)ethyl)-2-(2-methoxyethoxy)phenylsulfonyl]-3-isopropyl-thiourea], the melting point is 101 °C.

The compound `CNC(=S)NS(=O)(=O)c1cc(CCNC(=O)/C=C/c2ccccn2)ccc1OC` [Example 18, 1-[5-(2-(trans-3-(2-Pyridyl)acryloylamino)ethyl)-2-methoxyphenylsulfonyl]-3-methyl-thiourea] displayed a melting point of 188 °C.

Regarding `CNC(=O)NS(=O)(=O)c1cc(CCNC(=O)/C=C/c2cccs2)ccc1OCCOC` [Example 7, 1-[5-(2-(trans-3-(2-Thienyl)acryloylamino)ethyl)-2-(2-methoxyethoxy)phenylsulfonyl]-3-methyl-urea], the “Blockade hSUR1/hKiR6.2” value in data set [2] was 8.1%. Further, in data set [1], the “Relengthening” value worked out at 39%. The “Fibrillation ratio (in %)” value in data set [3] is reported as 80%.
